Measurements published in patent US10005739B2, “Quinazolinone and isoquinolinone derivative” (CHUGAI SEIYAKU KABUSHIKI KAISHA, priority 2013, dated 2018).

Target: DDR1 (Homo sapiens (Human), UniProt Q08345)
Assay: Measurement of DDR1 enzyme inhibitory activity (phosphorylation of biotinylated peptide, time-resolved fluorescence)
Format: biochemical
Details: human DDR1 enzyme, biotinylated peptide phosphorylation; read-out: DDR1 enzyme inhibition assay IC50
Experimental: 1. Measurement of DDR1 Enzyme Inhibitory Activity
The DDR1 enzyme inhibitory activity was determined with human DDR1 enzyme prepared using the baculovirus expression system, based on the inhibitory activity of phosphorylation of a biotinylated peptide ([…]) by the enzyme. The phosphorylated biotinylated peptide was detected using time-resolved fluorescence, with an anti-phosphorylated tyrosine antibody conjugated with europium cryptate and streptavidin conjugated with XL665 which is a derivative of allophycocyanin.

Sequence of DDR1 (Q08345 19-913): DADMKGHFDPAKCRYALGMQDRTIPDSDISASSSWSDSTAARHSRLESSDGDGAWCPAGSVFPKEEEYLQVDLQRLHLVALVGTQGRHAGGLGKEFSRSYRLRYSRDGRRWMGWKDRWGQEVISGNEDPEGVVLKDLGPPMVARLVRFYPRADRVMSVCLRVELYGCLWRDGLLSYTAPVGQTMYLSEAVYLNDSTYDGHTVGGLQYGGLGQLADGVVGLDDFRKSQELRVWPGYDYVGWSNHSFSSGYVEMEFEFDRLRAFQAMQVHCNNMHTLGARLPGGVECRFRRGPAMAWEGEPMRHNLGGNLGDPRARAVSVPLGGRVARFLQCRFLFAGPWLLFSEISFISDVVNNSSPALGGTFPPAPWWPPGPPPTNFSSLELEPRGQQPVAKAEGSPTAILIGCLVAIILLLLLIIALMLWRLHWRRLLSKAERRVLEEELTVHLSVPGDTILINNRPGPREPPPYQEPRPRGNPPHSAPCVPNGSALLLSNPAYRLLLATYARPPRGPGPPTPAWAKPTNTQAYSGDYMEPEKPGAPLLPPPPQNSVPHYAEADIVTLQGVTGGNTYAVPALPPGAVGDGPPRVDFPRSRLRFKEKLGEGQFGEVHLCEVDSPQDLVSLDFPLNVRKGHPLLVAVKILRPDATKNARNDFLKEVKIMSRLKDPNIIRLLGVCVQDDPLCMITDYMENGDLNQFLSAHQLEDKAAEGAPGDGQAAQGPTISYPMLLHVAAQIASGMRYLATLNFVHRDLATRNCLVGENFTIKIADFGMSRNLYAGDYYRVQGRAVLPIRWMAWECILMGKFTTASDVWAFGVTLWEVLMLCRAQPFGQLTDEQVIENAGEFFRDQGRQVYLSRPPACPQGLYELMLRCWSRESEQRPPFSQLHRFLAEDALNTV

**Q.** For `Cc1cc(Br)c2ncn(Nc3cc(Cl)ccc3S(=O)(=O)c3ccccc3)c(=O)c2c1` [Compound B-14, 3-[2-(Benzenesulfonyl)-5-chloroanilino]-8-bromo-6-methylquinazolin-4-one], which IC50 is on record?
**A.** 290 nM

**Q.** With `CCS(=O)(=O)c1ccc([N+](=O)[O-])cc1Cn1ccc2ccc(C(F)(F)F)cc2c1=O` [Compound F-6, 2-[(2-Ethylsulfonyl-5-nitrophenyl)methyl]-7-(trifluoromethyl)isoquinolin-1-one] as the compound, how does the IC50 read?
**A.** 490 nM

**Q.** `CCCc1ccc2ncn(Nc3cc(Cl)ccc3SCC)c(=O)c2c1` [Compound A-54, 3-(5-Chloro-2-ethylsulfanylanilino)-6-propylquinazolin-4-one] was tested. Which IC50 did it give?
**A.** 330 nM

**Q.** With `CCSc1ccc(C#N)cc1Nn1cnc2ncc(Br)cc2c1=O` [Compound C-7, 3-[(6-Bromo-4-oxopyrido[2,3-d]pyrimidin-3-yl)amino]-4-ethylsulfanylbenzonitrile] as the compound, how does the IC50 read?
**A.** 750 nM

**Q.** How did the IC50 turn out when `CCS(=O)(=O)c1ncc(Cl)cc1Nn1cnc2c(Br)cc(C)cc2c1=O` [Compound D-5, 8-Bromo-3-[(5-chloro-2-ethylsulfonylpyridin-3-yl)amino]-6-methylquinazolin-4-one] was run?
**A.** 130 nM

**Q.** How did the IC50 turn out when `CCS(=O)(=O)c1c(Cl)cc(Cl)cc1Nn1cnc2ccc(C(F)(F)F)cc2c1=O` [Compound C-39, 3-(3,5-Dichloro-2-ethylsulfonylanilino)-6-(trifluoromethyl)quinazolin-4-one] was run?
**A.** 140 nM

**Q.** For `CCSc1ccc(Cl)cc1Cn1cnc2ccc(C(F)(F)F)cc2c1=O` [Compound E-15, 3-[(5-Chloro-2-ethylsulfanylphenyl)methyl]-6-(trifluoromethyl)quinazolin-4-one], which IC50 is on record?
**A.** 450 nM

**Q.** `CCSc1ccc(Cl)cc1Nn1cnc2cc3c(cc2c1=O)OCCO3` [Compound A-42, 3-(5-Chloro-2-ethylsulfanylanilino)-7,8-dihydro-[1,4]dioxino[2,3-g]quinazolin-4-one] was tested. Which IC50 did it give?
**A.** 3100 nM

**Q.** With `C=C(C)c1ccc2ncn(Nc3cc(Cl)ccc3S(=O)(=O)CC)c(=O)c2c1` [Compound A-62, 3-(5-Chloro-2-ethylsulfonylanilino)-6-prop-1-en-2-ylquinazolin-4-one] as the compound, how does the IC50 read?
**A.** 110 nM

**Q.** With `CCSc1cnc(Cl)cc1Nn1cnc2ccc(C(F)(F)F)cc2c1=O` [Compound D-6, 3-[(2-Chloro-5-ethylsulfanylpyridin-4-yl)amino]-6-(trifluoromethyl)quinazolin-4-one] as the compound, how does the IC50 read?
**A.** 93 nM

**Q.** How did the IC50 turn out when `CCS(=O)(=O)c1ccc(F)cc1Nn1cnc2c(Br)cc(C(F)(F)F)cc2c1=O` [Compound C-22, 8-Bromo-3-(2-ethylsulfonyl-5-fluoroanilino)-6-(trifluoromethyl)quinazolin-4-one] was run?
**A.** 300 nM

**Q.** `CCOc1ccc2ncn(Nc3cc(Cl)ccc3SCC)c(=O)c2c1` [Compound A-36, 3-(5-Chloro-2-ethylsulfanylanilino)-6-ethoxyquinazolin-4-one] was tested. Which IC50 did it give?
**A.** 250 nM

**Q.** `CCSc1ccc(Cl)cc1Nn1cnc2ccc(I)cc2c1=O` [Compound A-60, 3-(5-Chloro-2-ethylsulfanylanilino)-6-iodoquinazolin-4-one] was tested. Which IC50 did it give?
**A.** 220 nM

**Q.** For `CCSc1ccc(Cl)cc1Nn1cnc2c(-c3ccc(F)cc3)cc(C)cc2c1=O` [Compound A-3, 3-(5-Chloro-2-ethylsulfanylanilino)-8-(4-fluorophenyl)-6-methylquinazolin-4-one], which IC50 is on record?
**A.** 110 nM

**Q.** With `CCSc1ccc(Cl)cc1Nn1cnc2c(Br)cc(C(F)(F)F)cc2c1=O` [Compound A-32, 8-Bromo-3-(5-chloro-2-ethylsulfanylanilino)-6-(trifluoromethyl)quinazolin-4-one] as the compound, how does the IC50 read?
**A.** 290 nM

**Q.** For `CCS(=O)(=O)c1ccc(C#N)cc1Nn1cnc2cc(CN3CCNCC3)c(Br)cc2c1=O` [Compound H-41, 3-[[6-Bromo-4-oxo-7-(piperazin-1-ylmethyl)quinazolin-3-yl]amino]-4-ethylsulfonylbenzonitrile], which IC50 is on record?
**A.** 250 nM

**Q.** For `CCSc1ccc(C#N)cc1Nn1cnc2ccc(OC(F)(F)F)cc2c1=O` [Compound C-15, 4-Ethylsulfanyl-3-[[4-oxo-6-(trifluoromethoxy)quinazolin-3-yl]amino]benzonitrile], which IC50 is on record?
**A.** 210 nM

**Q.** For `CCS(=O)(=O)c1ccc(Cl)cc1Cn1cnc2c(Br)cc(C)cc2c1=O` [Compound E-2, 8-Bromo-3-[(5-chloro-2-ethylsulfonylphenyl)methyl]-6-methylquinazolin-4-one], which IC50 is on record?
**A.** 600 nM

**Q.** For `CCS(=O)(=O)c1ccc(Cl)cc1Nn1cnc2c(-c3ccc(F)cc3)cc(C)cc2c1=O` [Compound A-4, 3-(5-Chloro-2-ethylsulfonylanilino)-8-(4-fluorophenyl)-6-methylquinazolin-4-one], which IC50 is on record?
**A.** 1350 nM

**Q.** `CCSc1ccc(Cl)cc1Nn1cnc2c(Cl)cc(C(F)(F)F)cc2c1=O` [Compound A-11, 8-Chloro-3-(5-chloro-2-ethylsulfanylanilino)-6-(trifluoromethyl)quinazolin-4-one] was tested. Which IC50 did it give?
**A.** 400 nM

**Q.** Which IC50 does the source give for `C=Cc1ccc2ncn(Nc3cc(Cl)ccc3S(=O)(=O)CC)c(=O)c2c1` [Compound A-64, 3-(5-Chloro-2-ethylsulfonylanilino)-6-ethenylquinazolin-4-one] here?
**A.** 200 nM

**Q.** `CCS(=O)(=O)c1ccc(Cl)cc1Nn1cnc2ncc(C#N)cc2c1=O` [Compound A-18, 3-(5-Chloro-2-ethylsulfonylanilino)-4-oxopyrido[2,3-d]pyrimidine-6-carbonitrile] was tested. Which IC50 did it give?
**A.** 1710 nM

**Q.** For `CCSc1ccc(F)cc1Nn1cnc2c(Br)cc(OC(F)(F)F)cc2c1=O` [Compound C-19, 8-Bromo-3-(2-ethylsulfanyl-5-fluoroanilino)-6-(trifluoromethoxy)quinazolin-4-one], which IC50 is on record?
**A.** 340 nM

**Q.** Which IC50 does the source give for `CCSc1ccc(C#N)cc1Nn1cnc2c(Br)cc(C(F)(F)F)cc2c1=O` [Compound C-11, 3-[[8-Bromo-4-oxo-6-(trifluoromethyl)quinazolin-3-yl]amino]-4-ethylsulfanylbenzonitrile] here?
**A.** 110 nM

**Q.** With `CCS(=O)(=O)c1ccc(Cl)cc1Nn1cnc2ccc(OC)cc2c1=O` [Compound A-35, 3-(5-Chloro-2-ethylsulfonylanilino)-6-methoxyquinazolin-4-one] as the compound, how does the IC50 read?
**A.** 95 nM

**Q.** With `CCSc1ccc(Cl)cc1Cn1cnc2c(Br)cc(OC(F)(F)F)cc2c1=O` [Compound E-11, 8-bromo-3-[(5-chloro-2-ethylsulfanylphenyl)methyl]-6-(trifluoromethoxy)quinazolin-4-one] as the compound, how does the IC50 read?
**A.** 540 nM

**Q.** For `Cc1cc(Br)c2ncn(Nc3cc(Cl)ccc3Sc3ccccc3)c(=O)c2c1` [Compound B-12, 8-Bromo-3-(5-chloro-2-phenylsulfanylanilino)-6-methylquinazolin-4-one], which IC50 is on record?
**A.** 150 nM

**Q.** With `CCS(=O)(=O)c1ccc(Cl)cc1Nn1cnc2ncc(C(F)(F)F)cc2c1=O` [Compound A-24, 3-(5-Chloro-2-ethylsulfonylanilino)-6-(trifluoromethyl)pyrido[2,3-d]pyrimidin-4-one] as the compound, how does the IC50 read?
**A.** 190 nM

**Q.** How did the IC50 turn out when `CCS(=O)(=O)c1ccc(Cl)cc1Nn1cnc2ccc(I)cc2c1=O` [Compound A-61, 3-(5-Chloro-2-ethylsulfonylanilino)-6-iodoquinazolin-4-one] was run?
**A.** 290 nM

**Q.** With `CCS(=O)(=O)c1ccc(C#N)cc1Cn1cnc2ccc(C(F)(F)F)cc2c1=O` [Compound E-28, 4-Ethylsulfonyl-3-[[4-oxo-6-(trifluoromethyl)quinazolin-3-yl]methyl]benzonitrile] as the compound, how does the IC50 read?
**A.** 630 nM

**Q.** With `CCSc1ccc(Cl)cc1Cn1cnc2cc(C)c(I)cc2c1=O` [Compound E-7, 3-[(5-Chloro-2-ethylsulfanylphenyl)methyl]-6-iodo-7-methylquinazolin-4-one] as the compound, how does the IC50 read?
**A.** 790 nM
